Assay results: publication PMC9098912, “Molecular basis for inhibiting human glucose transporters by exofacial inhibitors” (Nature Communications, 2022)
Where a chain is given by its changes, count along the chain named.

Assays:
[1] = target: T1, GLUT3exo (GLUT3 S64W and I305W) (Homo sapiens, UniProt P11169, I305W/N43T/S64W); test: biochemical; assay type: binding; details: for Figure 2c: MST binding curve, Mean: GLUT3 dTrp mutant, log[SA47]
T1 construct: His10 (N); made in house; host or cells: Sf9 insect cells (baculovirus)
T1 sequence (P11169 whole entry N43T/S64W/I305W): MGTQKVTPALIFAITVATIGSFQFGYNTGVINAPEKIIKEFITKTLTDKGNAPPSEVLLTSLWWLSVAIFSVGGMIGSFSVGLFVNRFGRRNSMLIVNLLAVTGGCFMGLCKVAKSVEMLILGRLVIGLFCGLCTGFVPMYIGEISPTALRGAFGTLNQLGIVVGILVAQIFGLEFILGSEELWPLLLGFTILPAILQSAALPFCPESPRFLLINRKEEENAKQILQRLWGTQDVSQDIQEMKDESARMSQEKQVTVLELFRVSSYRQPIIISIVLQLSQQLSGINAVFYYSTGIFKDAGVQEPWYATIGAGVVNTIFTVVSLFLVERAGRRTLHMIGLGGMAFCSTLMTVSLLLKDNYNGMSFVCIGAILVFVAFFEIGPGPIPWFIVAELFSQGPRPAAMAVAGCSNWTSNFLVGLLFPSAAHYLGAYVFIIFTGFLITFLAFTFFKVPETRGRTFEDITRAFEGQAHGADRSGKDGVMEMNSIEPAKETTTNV
Description: Following the same principle for the engineering of XylE-WW, we introduced two Trp substitutions, S64W and I305W, on the extracellular segments of TM2 and TM8 of GLUT3, respectively. This variant will be referred to as GLUT3exo hereafter (Fig. 1a). The two bulky substituents were expected to trap GLUT3 in an outward-facing conformation.
(§1) All mutants were generated by standard PCR-based strategy.
(§2) Inhibitors with serial dilutions were mixed with indicated protein. […] MST analyses were conducted on a Monolith NT. […] The MST data was analyzed by Monolith NT.115.

WT GLUT3 = target: T2, WT GLUT3 (Homo sapiens, UniProt P11169, N43T); test: Microscale thermophoresis (MST) binding assay; set-up: Figure 1e middle: MST binding curve, Mean / Figure 1e right: MST binding curve, Mean / Figure 2c: MST binding curve, Mean: unit not given here; details: for Figure 2c: MST binding curve, Mean: GLUT3, log[SA47]
T2 construct: His10 (N); made in house; host or cells: Sf9 insect cells (baculovirus)
T2 sequence (P11169 1-496 N43T): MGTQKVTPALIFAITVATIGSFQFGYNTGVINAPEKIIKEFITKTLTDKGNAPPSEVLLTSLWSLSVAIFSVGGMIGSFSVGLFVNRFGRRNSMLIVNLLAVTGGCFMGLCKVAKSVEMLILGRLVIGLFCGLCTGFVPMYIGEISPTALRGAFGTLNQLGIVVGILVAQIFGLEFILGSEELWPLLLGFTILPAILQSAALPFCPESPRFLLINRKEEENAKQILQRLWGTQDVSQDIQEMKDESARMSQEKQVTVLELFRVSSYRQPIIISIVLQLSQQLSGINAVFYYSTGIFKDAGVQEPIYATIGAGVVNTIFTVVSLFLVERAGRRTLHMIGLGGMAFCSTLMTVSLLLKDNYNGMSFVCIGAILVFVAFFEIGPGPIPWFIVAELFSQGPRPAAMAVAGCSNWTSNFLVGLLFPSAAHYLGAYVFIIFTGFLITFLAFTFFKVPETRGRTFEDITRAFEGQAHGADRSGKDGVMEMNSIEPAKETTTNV
Description: as §1, §2

GLUT3 F70A = GLUT3 F70A (Homo sapiens, UniProt P11169, F70A/N43T); test: biochemical
GLUT3 F70A, sequence (P11169 whole entry N43T/F70A, the tested form may be a part): as the sequence (P11169 whole entry N43T/S64W/I305W) above, with W64S, F70A, W305I counted along it
Description: The recombinant human glucose transporter GLUT1(N45T) and E. coli (strain O157:H7) D-xylose:proton symporter XylE were expressed and purified as described previously[17],[26]. […] In brief, the cDNA of human GLUT3 was cloned into a modified pFastBac vector (Invitrogen) fused with an N-terminal His10 tag. All mutants were generated by standard PCR-based strategy.
as §2

GLUT3 E378A = target: T3, GLUT3 E378A (Homo sapiens, UniProt P11169, E378A/N43T); test: MST binding assay, GLUT3 variant; details: read-out: Kd of SA47
T3 construct: His10 (N); made in house; host or cells: Sf9 insect cells (baculovirus)
T3 sequence (P11169 1-496 N43T/E378A): T2 sequence (P11169 1-496 N43T) with E378A
Description: as §1, §2

`COC(=O)CCNCc1ccccc1-n1ncc2c(N3CCN(c4cc(F)ccc4OC)CC3)ncnc21` [SA47] was tested, and the Kd [1] was 314 ± 80.7 nM, the “Figure 2c: MST binding curve, Mean” value ([1]; M -4.60206) was 107.845 and the “Figure 2c: MST binding curve, Mean” value ([1]; M -4.90309) was 92.9206. The “Figure 2c: MST binding curve, Mean” value ([1]; M -5.20412) was 96.8426, the “Figure 2c: MST binding curve, Mean” value ([1]; M -5.50515) was 85.0858 and the “Figure 2c: MST binding curve, Mean” value ([1]; M -5.80618) was 74.1558. For the same compound, the “Figure 2c: MST binding curve, Mean” value ([1]; M -6.10721) was 60.9811, the “Figure 2c: MST binding curve, Mean” value ([1]; M -6.40824) was 46.911 and the “Figure 2c: MST binding curve, Mean” value ([1]; M -6.70927) was 34.266. The “Figure 2c: MST binding curve, Mean” value ([1]; M -7.31133) was -0.7525, the “Figure 2c: MST binding curve, Mean” value ([1]; M -7.61236) was 4.6276 and the “Figure 2c: MST binding curve, Mean” value ([1]; M -7.91339) was 1.8858. For the same compound, the “Figure 2c: MST binding curve, Mean” value ([1]; M -8.21442) was 1.3955, the “Figure 2c: MST binding curve, Mean” value ([1]; M -8.51545) was 4.478 and the “Figure 2c: MST binding curve, Mean” value ([1]; M -8.81648) was -6.1144. The “Figure 2c: MST binding curve, Mean” value (WT GLUT3; M -4.30103) was 93.1623, the “Figure 2c: MST binding curve, Mean” value (WT GLUT3; M -4.60206) was 97.5688 and the “Figure 2c: MST binding curve, Mean” value (WT GLUT3; M -4.90309) was 103.147. The “Figure 2c: MST binding curve, Mean” value (WT GLUT3; M -5.20412) was 93.0436, the “Figure 2c: MST binding curve, Mean” value (WT GLUT3; M -5.50515) was 92.2406 and the “Figure 2c: MST binding curve, Mean” value (WT GLUT3; M -5.80618) was 84.0843. The “Figure 2c: MST binding curve, Mean” value (WT GLUT3; M -6.10721) was 63.9676, the “Figure 2c: MST binding curve, Mean” value (WT GLUT3; M -6.40824) was 36.3211 and the “Figure 2c: MST binding curve, Mean” value (WT GLUT3; M -7.0103) was 13.9692. The “Figure 2c: MST binding curve, Mean” value (WT GLUT3; M -7.31133) was 8.298, the “Figure 2c: MST binding curve, Mean” value (WT GLUT3; M -7.61236) was 1.1474 and the “Figure 2c: MST binding curve, Mean” value (WT GLUT3; M -7.91339) was 0.7084. For the same compound, the “Figure 2c: MST binding curve, Mean” value (WT GLUT3; M -8.21442) was 2.7164, the “Figure 2c: MST binding curve, Mean” value (WT GLUT3; M -8.51545) was 2.4811 and the “Figure 2c: MST binding curve, Mean” value (WT GLUT3; M -8.81648) was 1.1039. It also gave a Kd (WT GLUT3; WT GLUT3) of 317 ± 47.2 nM, a Kd (GLUT3 F70A) of 1500 ± 200 nM and a Kd (GLUT3 E378A) of 1100 ± 100 nM.
